Results as given in PubChem BioAssay (NCI).
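A five-concentration, 48-hour dose response in 96-well plates underlies each endpoint, interpolated linearly between surrounding concentrations. The concentration for full growth arrest is given as TGI.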

Tests used:
Assay in all cases: inhibition of tumour cell growth, NCI panel, 48 h
786-0 renal = tested on: 786-0 renal
SF-295 CNS = tested on: SF-295 CNS
MOLT-4 leukemia = tested on: MOLT-4 leukemia
RXF 393 renal = tested on: RXF 393 renal
HS 578T breast = tested on: HS 578T breast
CCRF-CEM leukemia = tested on: CCRF-CEM leukemia
A498 renal = tested on: A498 renal
SF-268 CNS = tested on: SF-268 CNS
MCF7 breast = tested on: MCF7 breast
T-47D breast = tested on: T-47D breast
OVCAR-5 ovarian = tested on: OVCAR-5 ovarian
SK-MEL-2 melanoma = tested on: SK-MEL-2 melanoma
MDA-N = tested on: MDA-N
MALME-3M melanoma = tested on: MALME-3M melanoma
SF-539 CNS = tested on: SF-539 CNS
OVCAR-8 ovarian = tested on: OVCAR-8 ovarian
NCI-H460 lung = tested on: NCI-H460 lung
NCI-H23 lung = tested on: NCI-H23 lung
M14 melanoma = tested on: M14 melanoma
KM12 colon = tested on: KM12 colon
HCT-15 colon = tested on: HCT-15 colon
COLO 205 colon = tested on: COLO 205 colon
EKVX NSCLC = tested on: EKVX NSCLC
BT-549 breast = tested on: BT-549 breast
SN12C renal = tested on: SN12C renal
SK-OV-3 ovarian = tested on: SK-OV-3 ovarian
TK-10 renal = tested on: TK-10 renal
U251 CNS = tested on: U251 CNS
SW-620 colon = tested on: SW-620 colon
PC-3 prostate = tested on: PC-3 prostate
UACC-257 melanoma = tested on: UACC-257 melanoma
SK-MEL-5 melanoma = tested on: SK-MEL-5 melanoma
A549 NSCLC = tested on: A549 NSCLC
DU-145 prostate = tested on: DU-145 prostate
NCI-H522 lung = tested on: NCI-H522 lung
IGROV1 ovarian = tested on: IGROV1 ovarian
UO-31 renal = tested on: UO-31 renal
MDA-MB-435 = tested on: MDA-MB-435
HCC-2998 colon = tested on: HCC-2998 colon
ACHN renal = tested on: ACHN renal
NCI-H226 lung = tested on: NCI-H226 lung
SNB-75 CNS = tested on: SNB-75 CNS
LOX IMVI melanoma = tested on: LOX IMVI melanoma
UACC-62 melanoma = tested on: UACC-62 melanoma
OVCAR-4 ovarian = tested on: OVCAR-4 ovarian
MDA-MB-231 breast = tested on: MDA-MB-231 breast
SNB-19 CNS = tested on: SNB-19 CNS
HOP-62 NSCLC = tested on: HOP-62 NSCLC
HOP-92 NSCLC = tested on: HOP-92 NSCLC
OVCAR-3 ovarian = tested on: OVCAR-3 ovarian
HL-60(TB) leukemia = tested on: HL-60(TB) leukemia
HCT-116 colon = tested on: HCT-116 colon
CAKI-1 renal = tested on: CAKI-1 renal
NCI/ADR-RES ovarian = tested on: NCI/ADR-RES ovarian
K-562 leukemia = tested on: K-562 leukemia
HT29 colon = tested on: HT29 colon
RPMI-8226 leukemia = tested on: RPMI-8226 leukemia
SK-MEL-28 melanoma = tested on: SK-MEL-28 melanoma

## CCOC(=O)C(C(=O)c1ccccc1C(=O)OC)=P(c1ccccc1)(c1ccccc1)c1ccccc1
786-0 renal
  TGI: > 10 µM
SF-295 CNS
  TGI: > 10 µM
MOLT-4 leukemia
  TGI: > 10 µM
RXF 393 renal
  TGI: > 10 µM
HS 578T breast
  TGI: > 10 µM
CCRF-CEM leukemia
  TGI: > 10 µM
A498 renal
  TGI: > 10 µM
SF-268 CNS
  TGI: > 10 µM
MCF7 breast
  TGI: > 10 µM
T-47D breast
  TGI: > 10 µM
OVCAR-5 ovarian
  TGI: > 10 µM
SK-MEL-2 melanoma
  TGI: > 10 µM
MDA-N
  TGI: > 10 µM
MALME-3M melanoma
  TGI: > 10 µM
SF-539 CNS
  TGI: > 10 µM
OVCAR-8 ovarian
  TGI: > 10 µM
NCI-H460 lung
  TGI: > 10 µM
NCI-H23 lung
  TGI: > 10 µM
M14 melanoma
  TGI: > 10 µM
KM12 colon
  TGI: > 10 µM
HCT-15 colon
  TGI: > 10 µM
COLO 205 colon
  TGI: > 10 µM
EKVX NSCLC
  TGI: > 10 µM
BT-549 breast
  TGI: > 10 µM
SN12C renal
  TGI: > 10 µM
SK-OV-3 ovarian
  TGI: > 10 µM
TK-10 renal
  TGI: > 10 µM
U251 CNS
  TGI: > 10 µM
SW-620 colon
  TGI: > 10 µM
PC-3 prostate
  TGI: > 10 µM
UACC-257 melanoma
  TGI: > 10 µM
SK-MEL-5 melanoma
  TGI: > 10 µM
A549 NSCLC
  TGI: > 10 µM
DU-145 prostate
  TGI: > 10 µM
NCI-H522 lung
  TGI: > 10 µM
IGROV1 ovarian
  TGI: > 10 µM
UO-31 renal
  TGI: > 10 µM
MDA-MB-435
  TGI: > 10 µM
HCC-2998 colon
  TGI: > 10 µM
ACHN renal
  TGI: > 10 µM
NCI-H226 lung
  TGI: > 10 µM
SNB-75 CNS
  TGI: > 10 µM
LOX IMVI melanoma
  TGI: > 10 µM
UACC-62 melanoma
  TGI: > 10 µM
OVCAR-4 ovarian
  TGI: > 10 µM
MDA-MB-231 breast
  TGI: > 10 µM
SNB-19 CNS
  TGI: > 10 µM
HOP-62 NSCLC
  TGI: > 10 µM
HOP-92 NSCLC
  TGI: > 10 µM
OVCAR-3 ovarian
  TGI: > 10 µM
HL-60(TB) leukemia
  TGI: > 10 µM
HCT-116 colon
  TGI: > 10 µM
CAKI-1 renal
  TGI: > 10 µM
NCI/ADR-RES ovarian
  TGI: > 10 µM
K-562 leukemia
  TGI: > 10 µM
HT29 colon
  TGI: > 10 µM
RPMI-8226 leukemia
  TGI: > 10 µM
SK-MEL-28 melanoma
  TGI: > 10 µM

## CCCCSC1=N/C(=C\c2ccc(N(C)C)cc2)C(NN)=N1
786-0 renal
  TGI: > 100 µM
SF-295 CNS
  TGI: > 100 µM
MOLT-4 leukemia
  TGI: > 100 µM
RXF 393 renal
  TGI: > 100 µM
HS 578T breast
  TGI: > 100 µM
CCRF-CEM leukemia
  TGI: > 100 µM
A498 renal
  TGI: > 100 µM
SF-268 CNS
  TGI: > 100 µM
MCF7 breast
  TGI: > 100 µM
T-47D breast
  TGI: > 100 µM
OVCAR-5 ovarian
  TGI: > 100 µM
SK-MEL-2 melanoma
  TGI: > 100 µM
MDA-N
  TGI: > 100 µM
MALME-3M melanoma
  TGI: > 100 µM
OVCAR-8 ovarian
  TGI: > 100 µM
NCI-H460 lung
  TGI: > 100 µM
NCI-H23 lung
  TGI: > 100 µM
M14 melanoma
  TGI: > 100 µM
KM12 colon
  TGI: > 100 µM
HCT-15 colon
  TGI: > 100 µM
EKVX NSCLC
  TGI: > 100 µM
BT-549 breast
  TGI: > 100 µM
SN12C renal
  TGI: > 100 µM
SK-OV-3 ovarian
  TGI: > 100 µM
TK-10 renal
  TGI: > 100 µM
U251 CNS
  TGI: > 100 µM
SW-620 colon
  TGI: > 100 µM
PC-3 prostate
  TGI: > 100 µM
UACC-257 melanoma
  TGI: > 100 µM
A549 NSCLC
  TGI: > 100 µM
DU-145 prostate
  TGI: > 100 µM
NCI-H522 lung
  TGI: > 100 µM
IGROV1 ovarian
  TGI: > 100 µM
MDA-MB-435
  TGI: > 100 µM
HCC-2998 colon
  TGI: > 100 µM
ACHN renal
  TGI: > 100 µM
SNB-75 CNS
  TGI: > 100 µM
LOX IMVI melanoma
  TGI: > 100 µM
UACC-62 melanoma
  TGI: > 100 µM
OVCAR-4 ovarian
  TGI: > 100 µM
MDA-MB-231 breast
  TGI: > 100 µM
SNB-19 CNS
  TGI: > 100 µM
HOP-62 NSCLC
  TGI: > 100 µM
HOP-92 NSCLC
  TGI: > 100 µM
OVCAR-3 ovarian
  TGI: > 100 µM
HL-60(TB) leukemia
  TGI: > 100 µM
HCT-116 colon
  TGI: > 100 µM
CAKI-1 renal
  TGI: > 100 µM
NCI/ADR-RES ovarian
  TGI: > 100 µM
K-562 leukemia
  TGI: > 100 µM
HT29 colon
  TGI: > 100 µM
RPMI-8226 leukemia
  TGI: > 100 µM
SK-MEL-28 melanoma
  TGI: > 100 µM
